Like-named read-outs stand apart in the source and are kept apart here.
Key:
Assay type in all cases: biochemical
[1] = target: T1, PDE1A (Homo sapiens, UniProt P54750); experiment: Phosphodiesterase enzyme screening assay, PDE1A; conditions: Table 1; ratio of IC50 values; value greater than 1 indicates greater selectivity for PDE9A2
T1 construct: purchased Reaction Biology Corporation, Malvern, Pa
Source text: (§1) Compounds of the invention were screened against PDE1A, PDE1B, PDE2A, PDE3A, PDE3B, PDE4A1A, PDE4B1, PDE4D3, PDE5A1, PDE6C, PDE7A, PDE8A1, PDE9A2, PDE10A2 AND PDE11A isoforms of the phosphodiesterase enzyme to determine activity and overall selectivity through comparative analysis. […] Where 8-methoxy-IBMX and Zaprinast were used as reference inhibitors.
(§2) The phosphodiesterase enzyme isoforms were obtained from a commercial retailer (Reaction Biology Corporation, Malvern, Pa.) for use in the instant screening assay.
(§3) The analysis was completed using the Caliper LabChip 3000 and a 12-sipper LabChip. LabChip assays are separations-based, meaning that the product and substrate are electrophoretically separated, thereby minimizing interferences and yielding the highest data quality available on any screening platform. […] High Z′ values, few false positives, few false negatives and analytical quality reproducibility are the reasons cited for the increasing reliance on the LabChip assays.
(§4) The off-chip incubation mobility-shift phosphodiesterase assay uses a microfluidic chip to measure the conversion of a fluorescent cyclic AMP substrate to a 5′-AMP product, or a cyclic GMP substrate to a 5′-GMP product. The reaction mixture, from a microtiter plate well, is introduced through a capillary sipper onto the chip, where the fluorescent substrate and product are separated by electrophoresis and detected via laser-induced fluorescence. […] The precision of microfluidics allows researchers to detect subtle interactions between drug candidates and therapeutic targets.
(§5) Reactions were carried out in 100 mM HEPES (pH 7.5), 5 mM MgCl2, 1 mM DTT, 0.003% Brij, 4.0 μM cGMP substrate. The reaction was started by addition of cGMP or cAMP and incubated for 1 hour at R.T. The reaction was terminated by the addition of stop buffer containing 100 mM HEPES (pH 7.5), 15 mM EDTA, 0.015% Brij-35, 5% DMSO. Cyclic AMP/GMP substrate and 5′-AMP/5′-GMP product were separated by charge using electrophoretic mobility shift. Product formed was compared to control wells to determine inhibition or enhancement of enzyme activity.
(§6) Data points were averages of quadruplicate wells and error bars represented the SEM for each point.

[2] = target: T2, PDE1B (Homo sapiens, UniProt Q01064); experiment: Phosphodiesterase enzyme screening assay, PDE1B; conditions: Table 1; ratio of IC50 values; value greater than 1 indicates greater selectivity for PDE9A2
T2 construct: purchased Reaction Biology Corporation, Malvern, Pa
Source text: as §1, §2, §3, §4, §5, §6

[3] = target: T3, PDE9A2 (Homo sapiens, UniProt O76083); experiment: Phosphodiesterase enzyme screening assay, PDE9A2; conditions: 4.0 μM cGMP substrate, 1 hour at R.T., read-out: Band (PDE9A2 IC50)
T3 construct: purchased Reaction Biology Corporation, Malvern, Pa
Procedure, shortened: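 Compounds were tested on commercial human PDE enzymes using a fluorescent cGMP substrate at 4.0 μM, incubated for one hour at room temperature. Values are means of four wells versus controls.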

T2 sequence (Q01064 whole entry): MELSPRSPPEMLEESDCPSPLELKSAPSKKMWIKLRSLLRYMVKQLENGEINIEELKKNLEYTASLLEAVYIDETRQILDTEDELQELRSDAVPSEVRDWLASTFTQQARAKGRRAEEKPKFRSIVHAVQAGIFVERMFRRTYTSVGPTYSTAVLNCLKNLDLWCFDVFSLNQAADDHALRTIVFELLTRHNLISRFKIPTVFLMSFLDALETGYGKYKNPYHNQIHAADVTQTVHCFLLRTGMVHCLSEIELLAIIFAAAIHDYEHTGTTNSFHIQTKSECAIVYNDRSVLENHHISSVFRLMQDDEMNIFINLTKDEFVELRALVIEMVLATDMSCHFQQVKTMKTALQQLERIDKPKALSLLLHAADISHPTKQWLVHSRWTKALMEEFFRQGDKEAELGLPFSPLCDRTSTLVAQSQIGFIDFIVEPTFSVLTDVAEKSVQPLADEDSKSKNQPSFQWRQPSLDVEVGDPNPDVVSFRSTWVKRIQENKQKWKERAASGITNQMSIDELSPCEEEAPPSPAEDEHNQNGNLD
T3 sequence (O76083 1-533 isoform O76083-2): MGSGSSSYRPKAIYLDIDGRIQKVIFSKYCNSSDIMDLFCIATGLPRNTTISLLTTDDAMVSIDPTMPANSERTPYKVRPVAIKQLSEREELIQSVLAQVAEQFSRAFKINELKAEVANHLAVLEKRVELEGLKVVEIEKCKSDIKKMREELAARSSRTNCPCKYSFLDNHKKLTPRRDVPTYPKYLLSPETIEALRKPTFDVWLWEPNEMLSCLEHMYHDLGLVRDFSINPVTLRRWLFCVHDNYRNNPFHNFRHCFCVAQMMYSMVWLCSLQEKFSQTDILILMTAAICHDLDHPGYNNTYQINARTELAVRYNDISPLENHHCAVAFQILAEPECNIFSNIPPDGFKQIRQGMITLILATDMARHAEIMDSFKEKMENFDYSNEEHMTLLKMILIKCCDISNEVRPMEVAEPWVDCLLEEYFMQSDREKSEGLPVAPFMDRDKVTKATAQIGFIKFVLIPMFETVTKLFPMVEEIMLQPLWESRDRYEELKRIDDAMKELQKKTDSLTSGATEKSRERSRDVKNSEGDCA
T1 sequence (P54750 whole entry): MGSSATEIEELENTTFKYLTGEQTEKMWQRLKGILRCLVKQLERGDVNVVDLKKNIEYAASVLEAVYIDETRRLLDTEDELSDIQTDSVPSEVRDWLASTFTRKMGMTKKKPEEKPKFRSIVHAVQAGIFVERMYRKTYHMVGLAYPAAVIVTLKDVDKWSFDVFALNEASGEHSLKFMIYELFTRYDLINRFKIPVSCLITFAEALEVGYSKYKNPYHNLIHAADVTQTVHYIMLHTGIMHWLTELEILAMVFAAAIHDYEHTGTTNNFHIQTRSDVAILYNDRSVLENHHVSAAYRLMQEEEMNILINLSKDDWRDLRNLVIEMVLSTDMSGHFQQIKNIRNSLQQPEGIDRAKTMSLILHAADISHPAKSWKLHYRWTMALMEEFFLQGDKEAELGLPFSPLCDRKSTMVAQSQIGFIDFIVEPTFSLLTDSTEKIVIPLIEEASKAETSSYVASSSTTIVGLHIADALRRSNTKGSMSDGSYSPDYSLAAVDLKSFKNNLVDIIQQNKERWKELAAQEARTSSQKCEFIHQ

| Compound | PDE1A selectivity (versus PDE9A2) [1] | PDE1B selectivity (versus PDE9A2) [2] | IC50 ([3]; Table 1, 10 concentrations) | IC50 [3] |
| --- | --- | --- | --- | --- |
| CC1CN(Cc2ccccc2)CC1c1nn2c(C3CCCOC3)ncc2c(=O)[nH]1 (single isomer, unassigned) [2-((3,4-trans)-1-benzyl-4-methylpyrrolidin-3-yl)-7-(tetrahydro-2H-pyran-3-yl)imidazo[5,1-f][1,2,4]triazin-4(3H)-one] | 28 | 38 | – | – |
| Cc1cc(F)ccc1-c1ncc2c(=O)[nH]c(C3CN(Cc4ccccc4)CC3C)nn12 (single isomer, unassigned; (+)) [(+)-2-((3,4-trans)-1-benzyl-4-methylpyrrolidin-3-yl)-7-(4-fluoro-2-methylphenyl)imidazo[5,1-f][1,2,4]triazin-4(3H)-one] | 257 | 225 | – | – |
| Cc1ccc(Cl)cc1-c1ncc2c(=O)[nH]c(C3CN(Cc4ccccc4)CC3C)nn12 (single isomer, unassigned; (+)) [(+)-2-((3,4-trans)-1-benzyl-4-methylpyrrolidin-3-yl)-7-(5-chloro-2-methylphenyl)imidazo[5,1-f][1,2,4]triazin-4(3H)-one] | 276 | 142 | – | – |
| Cc1ccc(F)cc1-c1ncc2c(=O)[nH]c(C3CN(Cc4ccccc4)CC3C)nn12 (single isomer, unassigned; (+)) [(+)-2-((3,4-trans)-1-benzyl-4-methylpyrrolidin-3-yl)-7-(5-fl] [(+)-2-((3,4-trans)-1-benzyl-4-methylpyrrolidin-3-yl)-7-(5-fluoro-2-methylphenyl)imidazo[1,5-f][1,2,4]triazin-4(3H)-one] | 247 | 109 | – | – |
| CC1CN(Cc2ccccc2)CC1c1nn2c(C3CCOCC3)ncc2c(=O)[nH]1 (single isomer, unassigned; (+)) [(+)-2-((3,4-trans)-1-benzyl-4-methylpyrrolidin-3-yl)-7-(tetr] [(+)-2-((3,4-trans)-1-benzyl-4-methylpyrrolidin-3-yl)-7-(tetrahydro-2H-pyran-4-yl)imidazo[1,5-f][1,2,4]triazin-4(3H)-one] | 5 | 5 | – | – |
| CC1CN(C(C)c2ccccc2)CC1c1nn2c(C3CCOCC3)ncc2c(=O)[nH]1 (single isomer, unassigned; (+)) [(+)-2-((3,4-trans)-4-methyl-1-((S)-1-phenylethyl)pyrrolidin-] | 51 | 99 | – | – |
| CC1CN(Cc2cnccn2)CC1c1nn2c(C3CCOCC3)ncc2c(=O)[nH]1 (single isomer, unassigned; (+)) [(+)-2-((3,4-trans)-4-methyl-1-(pyrazin-2-ylmethyl)pyrrolidin-3-yl)-7-(tetrahydro-2H-pyran-4-yl)imidazo[5,1-f][1,2,4]triazin-4(3H)-one] | 202 | 178 | – | – |
| CC1CN(Cc2ncccn2)CC1c1nn2c(C3CCOCC3)ncc2c(=O)[nH]1 (single isomer, unassigned; (+)) [(+)-2-((3,4-trans)-4-methyl-1-(pyrimidin-2-ylmethyl)pyrrolid] [(+)-2-((3,4-trans)-4-methyl-1-(pyrimidin-2-ylmethyl)pyrrolidin-3-yl)-7-(tetrahydro-2H-pyran-4-yl)imidazo[5,1-f][1,2,4]triazin-4(3H)-one] | 393 | 386 | – | – |
| CC1CN(Cc2ncccn2)CC1c1nn2c(C3CCOC3)ncc2c(=O)[nH]1 (single isomer, unassigned; (+)) [(+)-2-((3,4-trans)-4-methyl-1-(pyrimidin-2-ylmethyl)pyrrolid] [(+)-2-((3,4-trans)-4-methyl-1-(pyrimidin-2-ylmethyl)pyrrolidin-3-yl)-7-(tetrahydrofuran-3-yl)imidazo[5,1-f][1,2,4]triazin-4(3H)-one] | 28 | 58 | – | – |
| CC1CN(Cc2ncc3ccccc3n2)CC1c1nn2c(C3CCOCC3)ncc2c(=O)[nH]1 (single isomer, unassigned; (+)) [(+)-2-((3,4-trans)-4-methyl-1-(quinazolin-2-ylmethyl)pyrroli] [(+)-2-((3,4-trans)-4-methyl-1-(quinazolin-2-ylmethyl)pyrrolidin-3-yl)-7-(tetrahydro-2H-pyran-4-yl)imidazo[5,1-f][1,2,4]triazin-4(3H)-one] | 973 | 1360 | – | – |
| CC1CN(C(=O)c2ccncn2)CC1c1nn2c(C3CCOCC3)ncc2c(=O)[nH]1 (single isomer, unassigned; (-)) [(−)-2-((3,4-trans)-4-methyl-1-(pyrimidine-4-carbonyl)pyrrolidin-3-yl)-7-(tetrahydro-2H-pyran-4-yl)imidazo[5,1-f][1,2,4]triazin-4(3H)-one] | – | – | < 1000 nM | – |
| CC1CN(C(=O)c2cncnc2)CC1c1nn2c(C3CCOCC3)ncc2c(=O)[nH]1 (single isomer, unassigned; (-)) [(−)-2-((3,4-trans)-4-methyl-1-(pyrimidine-5-carbonyl)pyrrolidin-3-yl)-7-(tetrahydro-2H-pyran-4-yl)imidazo[5,1-f][1,2,4]triazin-4(3H)-one] | – | – | < 1000 nM | – |
| CC1CN(C(=O)c2ccccn2)CC1c1nn2c(C3CCOCC3)ncc2c(=O)[nH]1 (single isomer, unassigned; (-)) [(−)-2-((3,4-trans)-4-methyl-1-picolinoylpyrrolidin-3-yl)-7-(tetrahydro-2H-pyran-4-yl)imidazo[5,1-f][1,2,4]triazin-4(3H)-one] | – | – | < 1000 nM | – |
| CC1CN(Cc2ccccc2C#N)CC1c1nn2c(C3CCOCC3)ncc2c(=O)[nH]1 (single isomer, unassigned; (-)) [(−)-2-(((3,4-trans)-3-methyl-4-(4-oxo-7-(tetrahydro-2H-pyran-4-yl)-3,4-dihydroimidazo[5,1-f][1,2,4]triazin-2-yl)pyrrolidin-1-yl)methyl)benzonitrile] | – | – | < 1000 nM | – |
| CC1CN(S(=O)(=O)c2ccccc2C#N)CC1c1nn2c(C3CCOCC3)ncc2c(=O)[nH]1 (single isomer, unassigned; (-)) [(−)-2-(((3,4-trans)-3-methyl-4-(4-oxo-7-(tetrahydro-2H-pyran-4-yl)-3,4-dihydroimidazo[5,1-f][1,2,4]triazin-2-yl)pyrrolidin-1-yl)sulfonyl)benzonitrile] | – | – | < 1000 nM | – |
| CC1CN(Cc2cccc(C#N)c2)CC1c1nn2c(C3CCOCC3)ncc2c(=O)[nH]1 (single isomer, unassigned; (-)) [(−)-3-(((3,4-trans)-3-methyl-4-(4-oxo-7-(tetrahydro-2H-pyran-4-yl)-3,4-dihydroimidazo[5,1-f][1,2,4]triazin-2-yl)pyrrolidin-1-yl)methyl)benzonitrile] | – | – | < 1000 nM | – |
| Cc1ccc(F)cc1-c1ncc2c(=O)[nH]c(C3CN(Cc4ncccn4)CC3C)nn12 (single isomer, unassigned; (-)) [(−)-7-(5-fluoro-2-methylphenyl)-2-((3,4-trans)-4-methyl-1-(pyrimidin-2-ylmethyl)pyrrolidin-3-yl)imidazo[1,5-f][1,2,4]triazin-4(3H)-one] | – | – | 1000 to 10000 nM | – |
| CC1CN(Cc2ccccc2)CC1c1nn2c(C3CCN(C(=O)OC(C)(C)C)CC3)ncc2c(=O)[nH]1 (single isomer, unassigned; (-)) [(−)-tert-butyl 4-(2-((3,4-trans)-1-benzyl-4-methylpyrrolidin-3-yl)-4-oxo-3,4-dihydroimidazo[1,5-f][1,2,4]triazin-7-yl)piperidine-1-carboxylate] | – | – | > 10000 nM | – |
| CC1CN(Cc2nc3ccccn3n2)CC1c1nn2c(CC(F)(F)F)ncc2c(=O)[nH]1 (stereo not drawn) [2-((3,4-trans)-1-([1,2,4]triazolo[1,5-a]pyridin-2-ylmethyl)-4-methylpyrrolidin-3-yl)-7-(2,2,2-trifluoroethyl)imidazo[5,1-f][1,2,4]triazin-4(3H)-one] | – | – | – | < 1000 nM |
| (+)-2-((3,4-trans)-1-benzyl-4-methylpyrrolidin-3-yl)-7-(piperidin-4-yl)imidazo[1,5-f][1,2,4]triazin-4(3H)-one | – | – | 1000 to 10000 nM | – |
| (−)-2-((3,4-trans)-1-benzyl-4-methylpyrrolidin-3-yl)-7-(piperidin-4-yl)imidazo[1,5-f][1,2,4]triazin-4(3H)-one | – | – | > 10000 nM | – |

Reference: patent publication US9969742B2, “Imidazotriazinone compounds” (Ironwood Pharmaceuticals, Inc., priority 2012, dated 2018)
